Measurements published in patent US8361929B2, “Method of restoring male sterility in gramineous plants and male sterility restorative agent” (Tohoku University, priority 2009, dated 2013).
“Also recorded” adds a separate entry of the source.

Tests used:
Assay type in all cases: in vivo
[1] = tested on: barley (Hordeum vulagare L. cv Haruna-nijo); test: Side effects of spread auxin on the plants (leaf withering)
From the text: (§1) In an experiment to verify the effect of an auxin, the above-described nursery soil for horticultural was used. In addition, to facilitate the control of an auxin aqueous solution treatment, each pair of two rectangular planter boxes (60 mm×60 mm×100 mm (length×width×height), AGC TECHNO GLASS CO., LTD., Plant Box (Model No. CUL-JAR300)) were vertically stacked on each other. A hole having a diameter of about 1 cm was formed at the bottom center of the upper box. A 6-cm wick for an alcohol lamp with a knot was passed through the hole. Then, 300 ml of vermiculite (NITTAI Co., Ltd., vermiculite for agricultural and horticultural use) was packed thereabove. In the lower box, 0.2% (v/v) of HYPONEX (HYPONeX JAPAN CORP., LTD.) was placed as a nutrient water source for plants. Seeds of Hordeum vulagare L. cv Haruna-nijo having been stored in the dark at 4° C. were stimulated to germinate in the dark at 25° C. for 48 hours. The germinated seeds were sown at four seeds per pot at the four corners of the upper container. These sown seeds were grown in an artificial climate chamber (Nippon Medical & Chemical Instruments Co., Ltd., BIOTRON LH300RDS) under conditions of 20° C. during the day, 15° C. at night, and a 16-hour photoperiod. As the light source, 20 plant growing fluorescent tubes were used (16 tubes; National FL40S FR-P, and 4 tubes; National, FL20S FR-P).
(§2) Also in this cultivation method, the fifth leaves emerge and start to develop on Day 18 or 19 after the sowing as in the case where the culture soil was used, where the day of the sowing is regarded as Day 0. The plants were cultivated under high-temperature conditions of 30° C. during the day, 25° C. at night, and a 16-hour photoperiod from Day 19 after the sowing. Thus, a high-temperature treatment was conducted for five days (120 hours). Thereafter (on Day 24 after the sowing), the conditions were changed back to the normal conditions of 20° C. during the day, 15° C. at night, and a 16-hour photoperiod.
First, 10^−3 M, 10^−2 M, and 10^−1 M stock solutions in dimethyl sulfoxide (DMSO: Wako Pure Chemical Industries, Ltd., Production Code: 043-07216) were prepared by using each of indole-3-acetic acid (IAA: Wako Pure Chemical Industries, Ltd., Production Code: 94-00183), 1-naphthyl acetic acid (NAA: Wako Pure Chemical Industries, Ltd., Production Code: 148-00092), and 2,4-dichlorophenoxyacetic acid (2,4-D: Wako Pure Chemical Industries, Ltd., Production Code: 040-18532). The stock solutions were stored in the dark at −20° C. until used. These stock solutions were thawed immediately before spread, and each were diluted 1000-fold with distilled water. Thus, solutions were prepared at three levels of 10^−6 M, 10^−5 M, and 10^−4 M, and used as auxin aqueous solutions. […]

[2] = tested on: barley (Hordeum vulagare L. cv Haruna-nijo); test: Anther length at heading stage after spreading auxin aqueous solutions; details: control groups (suitable temperature cultivation); 10^−6 M, 10^−5 M or 10^−4 M
From the text: as §1
as §2, with “photoperiod. […]” for “photoperiod.”

[3] = tested on: barley (Hordeum vulagare L. cv Haruna-nijo); test: Pollen maturity, potassium iodide staining of anthers; details: control groups (suitable temperature cultivation); 10^−6 M, 10^−5 M or 10^−4 M
From the text: as §1
as §2, with “photoperiod. […]” for “photoperiod.”

[4] = tested on: barley (Hordeum vulagare L. cv Haruna-nijo); test: Seed fertility (seeds produced in panicles) after auxin spreading; details: for seeds produced in panicles: high-temperature treated groups, 10^−4 M
From the text: as §1
as §2, with “photoperiod. […]” for “photoperiod.”

[5] = high-temperature treated samples, 10^−4 M

Row | SMILES | negative effect on the plants (leaves) ([1]; control groups (suitable temperature cultivation), 10^−4 M) | negative effect / side effects on the plants [1, 5] | change of anther length at heading stage [2] | pollen formation [3] | negative effect / side effects on the plants ([1]; in vivo) | seeds produced in panicles [4] | seed fertility restoration (FIG. 10) ([4]; individual of high-temperature treated group, spread at 10^−4 M)
1 | O=C(O)COc1ccc(Cl)cc1Cl [2,4-D, 2,4-dichlorophenoxyacetic acid] | leaves stared to wither at an early stage | leaves started to wither at an early stage; also recorded: withering up at the early stage | change was hardly observed | formed normally | – | – | –
2 | O=C(O)Cc1c[nH]c2ccccc12 [IAA, indole-3-acetic acid] | – | – | change was hardly observed | formed normally | side effects were hardly observed | ~90% | –
3 | O=C(O)Cc1cccc2ccccc12 [NAA, 1-naphthyl acetic acid] | – | side effects were hardly observed | change was hardly observed | formed normally | – | ~90% | seed fertility restoration
